Measurements as given in patent US20240245670A1, “DOSING REGIMEN AND PHARMACEUTICAL COMBINATION COMPRISING 3-(1-OXOISOINDOLIN-2-YL)PIPERIDINE-2,6-DIONE DERIVATIVES” (Novartis AG, priority 2018, published 2024).

Key:
[1] = ECG (QTc interval) in single dose and 4-week GLP repeat dose study; assay type: in vivo, monkey
Method: The risk of possible QTc interval prolongation at the starting dose is therefore considered low. QT prolongation may become clinically significant during escalation but are not anticipated to be dose limiting until doses at or above 640 mg. Monitoring and other measures to mitigate potential risk of arrhythmia is addressed in Example 3 below.

rat IKZF2 = biological target: T1, rat IKZF2 (Rattus norvegicus, UniProt A0A0G2JVA9); experiment: IKZF2 degradation, species relevance (rat)
T1 construct: assessed in primary PBMCs obtained from rabbit, dog, pig, cynomolgus monkey, and human, and in primary splenocytes of mouse and rat; endogenous in cells; host or cells: primary rat splenocytes
Method: (§1) The starting dose of I-57 selected for this study is supported by 4-week GLP toxicology studies performed in cynomolgus monkeys. […] GLP toxicity studies identified 30 mg/kg as the HNSTD in monkey and supported a starting dose up to 100 mg QD in human (BSA scaled HED and using a safety factor of 6). The selected dose of 20 mg is anticipated to result in a significant but sub-maximal IKZF2 degradation in human PBMCs and TILs (50-90%), based on PK/PD modeling of I-57 exposure and IKZF2 degradation in cynomolgus PBMCs. More IKZF2 degradation may be required to change downstream biology. Therefore, 20 mg is considered safe. Escalation from this starting dose will facilitate the determination of the minimal required dose which provides optimal IKZF2 degradation to impact downstream biological activity.

cynomolgus monkeys = experiment: 4-week GLP toxicology study in cynomolgus monkeys; assay type: in vivo
Method: as §1

[2] = test system: IKZF2 expression in FOXP3+ T cells from PBMCs; experiment: PD after repeated daily oral dosing in immunized cynomolgus monkeys: IKZF2 by flow cytometry (FIG. 9A); assay type: in vivo, cynomolgus monkey
Method: FIG. 9A. is a graph showing the degradation of IKZF2 measured in FOXP3+ T cells upon repeated daily dosing in immunized cynomolgus monkeys treated daily with Compound I-57. Compound treatment was initiated at day 5.
(§2) The PK/PD relationship of I-57 was further examined in cynomolgus monkeys after repeated daily oral doses of 0.1 and 3 mg/kg. In this study, a cohort of animals were initially immunized with an antigen-adjuvant mixture (KLH/Squalene). The experiment was designed to assess the effect of I-57 exposure, and the resulting IKZF2 degradation, on immune response during immunization to test the hypothesis that IKZF2 degradation would result in increased proliferation of stimulated T-cells. In the experiment, daily I-57 oral treatment was initiated 5 days after immunization. An immunization booster dose was administered on day 15. I-57 plasma concentration and IKZF2 expression (as determined by flow cytometry) in FOXP3+ T cells from PBMCs were determined (FIG. 9A and FIG. 9B).
Consistent with previous findings, IKZF2 degradation was detected 24 h after the first dose (at day 6) (FIG. 9A and FIG. 9B). The levels of IKZF2 decreased further upon repeat dosing and reached a steady-state level approximately 72 h after initiation of treatment. This level of degradation was maintained throughout the remainder of the treatment (24 days).

[3] = PK in repeated oral dose study, MDA-MB231 xenograft human PBMC adoptive transfer mouse model (Table 14); assay type: in vivo; details: for AUCinf (unbound) / Cmax (unbound): mouse, unbound (73% PPB in mouse)
Method: FIG. 6 is a pictorial representation of the multi-dose PK/PD study design in the human PBMC adoptive transfer mouse model harboring MDA-MB231 xenografts. Fourteen consecutive daily doses of Compound I-57 was administered at 0.3 mg/kg, 1 mg/kg, 3 mg/kg or 30 mg/kg.
The PK/PD relationship of I-57 was examined in the hPBMC AdT model system. Human PBMCs were adoptively transferred into female NSG mice harboring established MDA-MB231 xenografts (FIG. 6). This model was selected based on the observation that IKZF2 positive Tregs (CD4+FOXP3+) were readily identifiable in peripheral blood and infiltrated in the tumor xenografts.
Mice were administered I-57 daily for 14 consecutive days at the doses shown. Longitudinal I-57 plasma concentrations were assessed (Table 14).
Based on the data from this hPBMC AdT mouse model, unbound I-57 (73% percent plasma binding in the mouse) exposures (AUCinf) of 7, 30, 157 and 3474 ng*h/mL are required to achieve the reduction of IKZF2 positivity (via flow cytometry) in tumor Tregs by 31, 43, 56, and 75%, respectively. The relationship between the magnitude and duration of I-57-mediated IKZF2 degradation and subsequent modulation of therapeutically relevant downstream biology is not yet well understood.

anti-KLH IG = experiment: Serum anti-KLH IG levels in immunized cynomolgus monkeys; assay type: in vivo, cynomolgus monkey; details: daily oral 0.1 and 3 mg/kg
Method: as §2
In order to measure the impact of I-57 treatment on the immune response following immunization, serum anti-KLH IG levels were measured longitudinally, and levels of T cell activation were measured in PBMCs by flow cytometry. […] In contrast, the proportion of proliferative peripheral T cells (denoted by Ki67 staining) was increased in the highest dose group (3 mg/kg) in the recall response phase, compared to immunization alone.

FIZ1 = biological target: T2, FIZ1 (Homo sapiens, UniProt Q96SL8+Q96SW2); experiment: Whole cell proteomic analysis in 293T cells and subsequent analyses; assay type: cell-based
T2 construct: endogenous in cells; host or cells: 293T
Method: Other potential degradation targets of I-57 were evaluated in 293T cells using whole cell proteomic analysis. […] Subsequent analyses have confirmed that FIZ1 is degraded by about 50% at a 10 μM concentration of I-57 ([I-57 Investigator's Brochure]). […] FIZ1 is expressed in the neural retina where it transcriptionally represses the differentiation of photoreceptors. FIZ1 is also expressed in non-ocular tissues with unknown function.

[4] = p.o. 0.3 mg/kg daily, post 1st dose
[5] = p.o. 0.3 mg/kg daily, post 13th dose
[6] = p.o. 1 mg/kg daily, post 1st dose
[7] = p.o. 1 mg/kg daily, post 13th dose
[8] = p.o. 3 mg/kg daily, post 1st dose
[9] = p.o. 3 mg/kg daily, post 13th dose
[10] = p.o. 30 mg/kg daily, post 1st dose
[11] = p.o. 30 mg/kg daily, post 13th dose

T2 sequence (Q96SL8 whole entry): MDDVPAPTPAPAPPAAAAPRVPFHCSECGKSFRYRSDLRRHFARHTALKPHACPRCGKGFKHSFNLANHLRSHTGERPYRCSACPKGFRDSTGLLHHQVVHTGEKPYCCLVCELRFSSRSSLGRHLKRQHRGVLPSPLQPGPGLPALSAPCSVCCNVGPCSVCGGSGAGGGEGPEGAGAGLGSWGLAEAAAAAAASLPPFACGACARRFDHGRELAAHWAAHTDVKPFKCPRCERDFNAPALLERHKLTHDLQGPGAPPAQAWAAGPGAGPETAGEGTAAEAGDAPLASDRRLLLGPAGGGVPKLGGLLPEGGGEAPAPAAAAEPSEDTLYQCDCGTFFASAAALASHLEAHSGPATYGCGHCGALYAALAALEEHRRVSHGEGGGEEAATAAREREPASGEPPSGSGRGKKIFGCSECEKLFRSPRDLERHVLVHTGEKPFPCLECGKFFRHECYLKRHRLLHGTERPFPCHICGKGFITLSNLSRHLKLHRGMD
T2 sequence (Q96SW2 whole entry): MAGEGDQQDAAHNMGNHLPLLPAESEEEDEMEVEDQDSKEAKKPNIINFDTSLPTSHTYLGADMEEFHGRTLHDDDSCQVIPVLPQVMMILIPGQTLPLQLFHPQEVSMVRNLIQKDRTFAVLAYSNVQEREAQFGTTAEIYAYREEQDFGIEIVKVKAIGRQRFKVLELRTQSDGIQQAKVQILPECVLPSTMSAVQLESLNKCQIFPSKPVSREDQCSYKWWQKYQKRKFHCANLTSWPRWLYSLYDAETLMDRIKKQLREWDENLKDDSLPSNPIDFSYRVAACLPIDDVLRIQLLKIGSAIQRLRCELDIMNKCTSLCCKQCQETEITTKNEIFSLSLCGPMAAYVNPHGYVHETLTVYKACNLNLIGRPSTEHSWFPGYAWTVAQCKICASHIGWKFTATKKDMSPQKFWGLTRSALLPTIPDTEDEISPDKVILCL
T2 sequence (Q16531 whole entry partner): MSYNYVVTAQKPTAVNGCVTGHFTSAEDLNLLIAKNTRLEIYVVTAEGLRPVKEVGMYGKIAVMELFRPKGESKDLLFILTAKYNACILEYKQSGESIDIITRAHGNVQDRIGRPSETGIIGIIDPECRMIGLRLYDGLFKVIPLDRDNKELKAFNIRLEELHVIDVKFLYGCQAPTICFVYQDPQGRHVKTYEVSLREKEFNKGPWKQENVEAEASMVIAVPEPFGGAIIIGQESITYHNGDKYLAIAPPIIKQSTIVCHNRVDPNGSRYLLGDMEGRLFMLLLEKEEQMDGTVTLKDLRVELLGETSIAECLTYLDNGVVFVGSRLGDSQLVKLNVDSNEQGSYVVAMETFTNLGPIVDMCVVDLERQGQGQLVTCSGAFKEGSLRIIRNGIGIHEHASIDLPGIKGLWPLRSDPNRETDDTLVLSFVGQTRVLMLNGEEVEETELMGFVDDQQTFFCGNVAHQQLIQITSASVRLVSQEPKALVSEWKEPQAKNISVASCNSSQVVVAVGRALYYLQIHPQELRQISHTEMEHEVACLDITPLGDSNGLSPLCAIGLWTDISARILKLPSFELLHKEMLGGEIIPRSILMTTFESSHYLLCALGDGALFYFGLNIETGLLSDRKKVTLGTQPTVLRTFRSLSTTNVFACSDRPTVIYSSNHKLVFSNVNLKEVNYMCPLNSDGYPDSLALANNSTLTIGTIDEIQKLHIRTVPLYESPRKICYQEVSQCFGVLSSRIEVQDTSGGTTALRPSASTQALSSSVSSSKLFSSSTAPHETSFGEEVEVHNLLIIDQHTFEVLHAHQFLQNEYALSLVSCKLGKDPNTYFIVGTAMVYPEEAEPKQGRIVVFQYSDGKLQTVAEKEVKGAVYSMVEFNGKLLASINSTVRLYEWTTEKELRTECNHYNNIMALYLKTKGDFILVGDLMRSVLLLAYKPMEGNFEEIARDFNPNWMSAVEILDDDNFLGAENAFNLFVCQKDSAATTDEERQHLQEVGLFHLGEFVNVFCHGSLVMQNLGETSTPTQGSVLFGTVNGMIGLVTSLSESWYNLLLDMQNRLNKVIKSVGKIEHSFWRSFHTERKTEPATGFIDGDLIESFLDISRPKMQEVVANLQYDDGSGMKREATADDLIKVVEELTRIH
T1 sequence (A0A0G2JVA9 1-467): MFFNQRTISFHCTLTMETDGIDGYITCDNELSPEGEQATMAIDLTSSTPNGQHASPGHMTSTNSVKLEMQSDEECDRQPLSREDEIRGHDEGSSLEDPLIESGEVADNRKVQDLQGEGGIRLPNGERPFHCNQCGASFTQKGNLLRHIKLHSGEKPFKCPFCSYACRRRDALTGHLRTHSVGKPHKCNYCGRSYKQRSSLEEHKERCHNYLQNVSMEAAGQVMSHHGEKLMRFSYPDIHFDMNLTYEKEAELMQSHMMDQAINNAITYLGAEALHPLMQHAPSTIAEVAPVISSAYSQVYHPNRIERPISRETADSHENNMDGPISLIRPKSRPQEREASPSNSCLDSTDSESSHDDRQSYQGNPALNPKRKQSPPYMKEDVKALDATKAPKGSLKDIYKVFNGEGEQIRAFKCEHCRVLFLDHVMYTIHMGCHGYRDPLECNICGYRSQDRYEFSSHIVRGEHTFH
T1 sequence (Q56AP7 whole entry partner): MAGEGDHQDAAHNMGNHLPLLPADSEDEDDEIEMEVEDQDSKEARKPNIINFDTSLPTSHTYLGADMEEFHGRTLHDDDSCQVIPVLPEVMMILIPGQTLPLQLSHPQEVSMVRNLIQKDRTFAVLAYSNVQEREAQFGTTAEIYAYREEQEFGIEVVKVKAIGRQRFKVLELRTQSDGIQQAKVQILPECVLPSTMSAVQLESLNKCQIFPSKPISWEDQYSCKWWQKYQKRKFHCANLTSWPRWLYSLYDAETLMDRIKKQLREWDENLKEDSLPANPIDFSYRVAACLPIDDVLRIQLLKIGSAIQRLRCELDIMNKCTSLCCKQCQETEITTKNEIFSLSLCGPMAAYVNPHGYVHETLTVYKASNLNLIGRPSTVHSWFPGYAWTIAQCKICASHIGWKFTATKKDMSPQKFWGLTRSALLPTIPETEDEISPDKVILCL

O=C1CCC(N2Cc3cc(C4CCN(Cc5ccccc5)CC4)ccc3C2=O)C(=O)N1 (stereo not drawn) [Compound I-57, 3-(5-(1-benzylpiperidin-4-yl)-1-oxoisoindolin-2-yl)piperidine-2,6-dione]
free Cmax in monkeys relative to free Cmax predicted at the clinical starting dose of 20 mg ([1]; monkeys at 3 mg/kg): 40 times
QT effects ([1]; monkeys, 3 mg/kg): no QT effects
time of highest magnitude of QTc effect ([1]; monkeys, coinciding with Tmax): 0.5 to 5.5 h
degradation of rat IKZF2 (rat IKZF2): not rat
supported starting dose in human (BSA scaled HED, safety factor of 6) (cynomolgus monkeys; derived from monkey HNSTD): up to 100 mg QD
HNSTD (cynomolgus monkeys; monkey, 4-week GLP toxicity studies): 30 mg/kg
time to steady-state level of IKZF2 ([2]; after initiation of treatment, repeat daily dosing): approximately 72 h
time at which IKZF2 degradation was detected ([2]; after the first dose (at day 6), daily oral 0.1 and 3 mg/kg): 24 h
increase in AUC and Cmax with dose ([3]; between 3 and 30 mg/kg, daily oral): over-dose proportional increase
increase in overall AUC and Cmax with dose ([3]; from 0.3 to 3 mg/kg, daily oral): dose proportional increase
AUCinf (unbound) [3, 4]: 7.1 ng·h/mL
Cmax (unbound) [3, 4]: 2.9 ng/mL
AUCinf (unbound) [3, 5]: 7.5 ng·h/mL
Cmax (unbound) [3, 5]: 1.1 ng/mL
AUCinf (unbound) [3, 6]: 30 ng·h/mL
Cmax (unbound) [3, 6]: 8.8 ng/mL
AUCinf (unbound) [3, 7]: 20 ng·h/mL
Cmax (unbound) [3, 7]: 4.6 ng/mL
AUCinf (unbound) [3, 8]: 157 ng·h/mL
Cmax (unbound) [3, 8]: 53 ng/mL
AUCinf (unbound) [3, 9]: 92 ng·h/mL
Cmax (unbound) [3, 9]: 27 ng/mL
AUCinf (unbound) [3, 10]: 3470 ng·h/mL
Cmax (unbound) [3, 10]: 1250 ng/mL
AUCinf (unbound) [3, 11]: 4270 ng·h/mL
Cmax (unbound) [3, 11]: 1300 ng/mL
unbound exposure (AUCinf) ([3]; required for reduction of IKZF2 positivity in tumor Tregs by 31%): 7 ng·h/mL
unbound exposure (AUCinf) ([3]; required for reduction of IKZF2 positivity in tumor Tregs by 43%): 30 ng·h/mL
unbound exposure (AUCinf) ([3]; required for reduction of IKZF2 positivity in tumor Tregs by 56%): 157 ng·h/mL
unbound exposure (AUCinf) ([3]; required for reduction of IKZF2 positivity in tumor Tregs by 75%): 3474 ng·h/mL
anti-IgG titers elicited by the immunization (anti-KLH IG): not further enhanced
FIZ1 degradation (FIZ1; 10 μM concentration of I-57): about 50%
FIZ1 degradation (proteomics) (FIZ1; 293T cells, nearly 8000 proteins identified): degraded
